# Assay results reported in patent US8021672B2, “Development of a Chlamydia sp. vaccine strain” (priority 2006, dated 2011).
# Legend:
# McCoy cells = assay: Iodine staining of Chlamydia-infected cells for glycogen accumulation; type: cell-based; settings: Nigg-infected McCoy monolayers, 62.5 μg ml^−1
# Excerpt: Iodine staining of Chlamydia-infected cells. McCoy cells cultured on glass cover slips were infected as described above. At the desired point in the infection the culture medium was removed and the monolayer rinsed several times with 1×HBSS before being fixed and stained with iodine (Schachter J & Dawson, 1978) in order to detect the presence of accumulated glycogen. Stained cells were immediately photographed using a digital camera system and SPOT version 4.0.6 software from Diagnostic Instruments Inc. (Sterling Heights, Mich.).
# Plasmid-deficient C. muridarum fail to accumulate glycogen within inclusions.
# plasmid = settings: 20 μg ml^−1 in conjunction with imipramine; cited from earlier work
# uninfected McCoy cells = assay: Cytotoxicity of novobiocin for uninfected host cells; type: cell-based
# Description: (§1) Cell culture media and reagents were purchased from Mediatech (Hearndon, Va.). Wells containing confluent monolayers of McCoy cells were infected at an approximate MOI of 0.5-1, before being centrifuged for 1 hour at 37° C. The infective inoculum was then removed and replaced with 1× Dulbecco's modified Eagle's medium (DMEM) supplemented with 10% heat-inactivated FBS, gentamicin (20 μg ml^−1) and 0.1 μg ml^−1 cycloheximide. We have previously determined that concentrations in excess of 250 μg ml^−1 are cytotoxic for uninfected McCoy cells. Novobiocin (Sigma, St. Louis, Mo.) was added at the indicated concentrations (up to 250 μg ml^−1) at 4 hours post infection. Infected cells were incubated at 37° C., 5% CO2 for a further 36 hours. Infected cells were harvested into SPG buffer (218 mM sucrose, 3.8 mM KH2PO4, 7.2 mM K2HPO4, 4.9 mM L-glutamate, pH 7.2) at 40 hours post infection, sonicated, and stored at −80° C. Bacteria were subsequently titrated by plaque assay or as inclusion forming units (IFU) using a genus-specific fluorescently tagged monoclonal antibody (Biorad, Hercules, Calif.).
# C. muridarum strain Nigg = assay: Effect of novobiocin treatment on replication of Chlamydiae (titration by plaque assay); type: cell-based; settings: novobiocin 62.5 μg ml^−1 added 4 hours post infection
# Excerpt: FIG. 1. Effect of novobiocin treatment on replication of C. muridarum strain Nigg. The novobiocin-treated Chlamydiae were harvested and plated by centrifugation to generate individual plaques for titration. The relative infectious yield of strain Nigg at each novobiocin concentration was derived by normalizing the total infectious yield per treated population against the yield from the untreated control. The graph is drawn from a single representative experiment with each point assayed in duplicate.
# as §1, with “Infected cells were harvested into SPG buffer (218 mM sucrose, 3.8 mM KH2PO4, 7.2 mM K2HPO4, 4.9 mM L-glutamate, pH 7.2) at 40 hours post infection, sonicated, and stored at −80° C. Bacteria were subsequently titrated by plaque assay or as inclusion forming units (IFU) using a genus-specific fluorescently tagged monoclonal antibody (Biorad, Hercules, Calif.).” left out
# Effect of novobiocin treatment on replication of Chlamydiae. […] The titers of novobiocin-treated bacteria were measured by plaque assays (FIG. 1). […]
smiles,measurement,setting,value
CO[C@@H]1[C@@H](OC(N)=O)[C@@H](O)[C@H](Oc2ccc3c(O)c(NC(=O)c4ccc(O)c(CC=C(C)C)c4)c(=O)oc3c2C)OC1(C)C [novobiocin],iodine staining of inclusions under novobiocin treatment,McCoy cells,variable iodine staining of inclusions
same,effect on plasmid copy number,plasmid,plasmid copy number increases
same,concentrations cytotoxic for uninfected McCoy cells,uninfected McCoy cells,> 250 µg/mL
same,reduction of relative infectious yield of bacteria,C. muridarum strain Nigg,at least 100 fold
